“Also recorded” adds a separate entry of the source.
Assays:
human D1 [1] = molecular target: T1, human D1 (Homo sapiens, UniProt P21728); assay: BRET β-arrestin2 recruitment assay; details: for β-arrestin2 recruitment activity in words: D1R BRET assay
human D1 [2] = molecular target: T1, human D1; assay: D1R GS-mediated GS-cAMP accumulation assay; details: for fold reduced potency in the GS-cAMP accumulation assay compared to 1: compared to compound 1; for GS-cAMP accumulation activity in words: D1R GloSensor assay

T1 sequence (P21728 whole entry): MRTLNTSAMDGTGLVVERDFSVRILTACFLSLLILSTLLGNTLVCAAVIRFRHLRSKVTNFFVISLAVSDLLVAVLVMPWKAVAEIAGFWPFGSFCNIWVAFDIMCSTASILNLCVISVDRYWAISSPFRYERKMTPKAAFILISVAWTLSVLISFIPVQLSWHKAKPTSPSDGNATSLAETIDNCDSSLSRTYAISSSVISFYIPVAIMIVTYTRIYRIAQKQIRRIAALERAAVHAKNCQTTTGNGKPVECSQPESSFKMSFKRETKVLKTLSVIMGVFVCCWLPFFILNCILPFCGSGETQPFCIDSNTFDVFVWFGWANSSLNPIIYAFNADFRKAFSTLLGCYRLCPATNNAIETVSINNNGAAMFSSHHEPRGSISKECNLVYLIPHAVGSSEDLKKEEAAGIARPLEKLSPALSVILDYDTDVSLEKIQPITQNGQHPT

Row | SMILES | β-arrestin2 recruitment activity in words (human D1 [1]) | other results
1 | Cc1cc(Oc2nccc3occc23)ccc1-c1c(C)nc2cnccn12 [Compound 4, 4-(3-Methyl-4-(2-methylimidazo[1,2-a]pyrazin-3-yl)phenoxy)-furo[3,2-c]pyridine] | – | fold reduction in potency for β-arrestin2 recruitment compared to 1 (human D1 [1]; compared to compound 1): 22 fold; fold reduced potency in the GS-cAMP accumulation assay compared to 1 (human D1 [2]): 23 fold
2 | Cc1cc(Oc2nccc3occc23)ccc1-c1cccc2nccn12 [Compound 5, 4-(4-(Imidazo[1,2-a]pyridin-5-yl)-3-methylphenoxy)furo[3,2-c]-pyridine] | – | fold reduced potency in the GS-cAMP accumulation assay compared to 1 (human D1 [2]): approximately 10 fold
3 | COC(=O)c1cccn2c(-c3ccc(Oc4nccc5occc45)cc3C)cnc12 [Compound 6, Methyl-3-(4-(furo[3,2-c]pyridin-4-yloxy)-2-methylphenyl)-imidazo[1,2-a]pyridine-8-carboxylate] | no detectable β-arrestin2 recruitment activity | –
4 | Cc1cc(Oc2nccc3occc23)ccc1-c1nc(N)cnc1C [Compound 7, 6-(4-(Furo[3,2-c]pyridin-4-yloxy)-2-methylphenyl)-5-methylpyrazin-2-amine] | minimal β-arr2 recruitment | –
5 | CCOc1ncnc(C)c1-c1ccc(Oc2nccc3occc23)cc1C [Compound 8, 4-(4-(4-Ethoxy-6-methylpyrimidin-5-yl)-3-methylphenoxy)furo-[3,2-c]pyridine] | not active in the β-arrestin2 recruitment assay | –
6 | Cc1cc(Oc2nccc3occc23)ccc1-c1c(C)cnnc1C [Compound 9, 4-(4-(3,5-Dimethylpyridazin-4-yl)-3-methylphenoxy)furo[3,2-c]-pyridine] | not active in the β-arrestin2 recruitment assay | EC50 (human D1 [2]): 1 nM
7 | COc1ccc(-c2ccc(Oc3nccc4occc34)cc2C)c(C)n1 [Compound 11, 4-(4-(6-Methoxy-2-methylpyridin-3-yl)-3-methylphenoxy)furo-[3,2-c]pyridine] | inactive in the β-arrestin2 recruitment assay | –
8 | Cc1cc(Oc2nccc3occc23)ccc1-c1cncc(C(N)=O)c1 [Compound 12, 5-(4-(Furo[3,2-c]pyridin-4-yloxy)-2-methylphenyl)nicotinamide] | inactive in the β-arrestin2 recruitment assay | –
9 | Cc1cc(Oc2nccc3occc23)ccc1-c1ccc(C#N)cn1 [Compound 13, 6-(4-(Furo[3,2-c]pyridin-4-yloxy)-2-methylphenyl)nicotinonitrile] | inactive in the β-arrestin2 recruitment assay | –
10 | Cc1cc(-c2c(C)ncc3nccn23)ccc1Oc1nccc2occc12 [Compound 14, 4-(2-Methyl-4-(6-methylimidazo[1,2-a]pyrazin-5-yl)phenoxy)-furo[3,2-c]pyridine] | completely eliminated β-arrestin2 recruitment activity | –
11 | Cc1ncc2nccn2c1-c1ccc(Oc2nccc3occc23)c(C)c1C [Compound 15, 4-(2,3-Dimethyl-4-(6-methylimidazo[1,2-a]pyrazin-5-yl)-phenoxy)furo[3,2-c]pyridine] | inactive in β-arrestin2 recruitment | –
12 | Cc1ncc2nccn2c1-c1ccc(Oc2nccc3occc23)cc1C(F)(F)F [Compound 17, 4-(4-(6-Methylimidazo[1,2-a]pyrazin-5-yl)-3-(trifluoromethyl)-phenoxy)furo[3,2-c]pyridine] | potent full agonist of both signaling pathways | GS-cAMP accumulation activity in words (human D1 [2]): potent full agonist of both signaling pathways
13 | Cc1ncc2nccn2c1-c1ccc(Oc2nccc3occc23)c(C(F)(F)F)c1 [Compound 18, 4-(4-(6-Methylimidazo[1,2-a]pyrazin-5-yl)-2-(trifluoromethyl)-phenoxy)furo[3,2-c]pyridine] | completely devoid of activity in both the G protein and β-arrestin2 recruitment assays | GS-cAMP accumulation activity in words (human D1 [2]): completely devoid of activity in both the G protein and β-arrestin2 recruitment assays
14 | Cc1ncc2nccn2c1-c1cc(F)c(Oc2nccc3occc23)c(F)c1 [Compound 19, 4-(2,6-Difluoro-4-(6-methylimidazo[1,2-a]pyrazin-5-yl)-phenoxy)furo[3,2-c]pyridine] | eliminated β-arrestin2 recruitment activity | –
15 | Cc1cc(Nc2nccc3occc23)ccc1-c1c(C)ncc2nccn12 [Compound 20, N-(3-Methyl-4-(6-methylimidazo[1,2-a]pyrazin-5-yl)phenyl)furo-[3,2-c]pyridin-4-amine] | only minimally active in the β-arrestin2 recruitment assay | –
16 | Cc1cc(Oc2nccc3occ(C4CC4)c23)ccc1-c1c(C)ncc2nccn12 [Compound 26, 3-Cyclopropyl-4-(3-methyl-4-(6-methylimidazo[1,2-a]pyrazin-5-yl)phenoxy)furo[3,2-c]pyridine] | diminished β-arrestin2 recruitment activity | –

Row | SMILES | β-arrestin2 recruitment activity in words (human D1 [1]) | other results
17 | Cc1cc(Oc2cccc3occc23)ccc1-c1c(C)ncc2nccn12 [Compound 27, 5-(4-(Benzofuran-4-yloxy)-2-methylphenyl)-6-methylimidazo-[1,2-a]pyrazine] | inactivity for β-arrestin2 recruitment | –
18 | Cc1cc(Oc2nccc3ccccc23)ccc1-c1c(C)ncc2nccn12 [Compound 28, 1-(3-Methyl-4-(6-methylimidazo[1,2-a]pyrazin-5-yl)phenoxy)-isoquinoline] | inactive for β-arrestin2 recruitment | –
19 | Cc1cc(Oc2nccn3ccnc23)ccc1-c1c(C)ncc2nccn12 [Compound 31, 5-(4-(Imidazo[1,2-a]pyrazin-8-yloxy)-2-methylphenyl)-6-methylimidazo[1,2-a]pyrazine] | β-arrestin2 recruitment was undetectable | –
20 | Cc1cc(Oc2nccc3[nH]ncc23)ccc1-c1c(C)ncc2nccn12 [Compound 32, 4-(3-Methyl-4-(6-methylimidazo[1,2-a]pyrazin-5-yl)phenoxy)-1H-pyrazolo[4,3-c]pyridine] | not recovered | –
21 | Cc1cc(Oc2ccccn2)ccc1-c1c(C)ncc2nccn12 [Compound 33, 6-Methyl-5-(2-methyl-4-(pyridin-2-yloxy)phenyl)imidazo[1,2-a]-pyrazine] | very weak activity in the β-arrestin2 recruitment assay | –
22 | Cc1cc(Oc2ncccc2Br)ccc1-c1c(C)ncc2nccn12 [Compound 34, 5-(4-((3-bromopyridin-2-yl)oxy)-2-methylphenyl)-6-methylimidazo[1,2-a]pyrazine] | completely inactive in both pathways | GS-cAMP accumulation activity in words (human D1 [2]): completely inactive in both pathways
23 | Cc1cc(-c2cccc3nccn23)ccc1Oc1nccc2occc12 [Compound 37, 4-(4-(Imidazo[1,2-a]pyridin-5-yl)-2-methylphenoxy)furo[3,2-c]-pyridine] | eliminated β-arrestin2 recruitment activity | –
24 | Cc1c(Oc2nccc3occc23)ccc(-c2cccc3nccn23)c1C [Compound 38, 4-(4-(Imidazo[1,2-a]pyridin-5-yl)-2,3-dimethylphenoxy)furo[3,2-c]pyridine] | β-arrestin2 recruitment was eliminated | –
25 | Cc1cc(Oc2nccc3occc23)cc(C)c1-c1cccc2nccn12 [Compound 39, 4-(4-(Imidazo[1,2-a]pyridin-5-yl)-3,5-dimethylphenoxy)furo[3,2-c]pyridine] | completely inactive | GS-cAMP accumulation activity in words (human D1 [2]): completely inactive
26 | FC(F)(F)c1cc(-c2cccc3nccn23)ccc1Oc1nccc2occc12 [Compound 42, 4-(4-(Imidazo[1,2-a]pyridin-5-yl)-2-(trifluoromethyl)phenoxy)-furo[3,2-c]pyridine] | inactive in both G protein and β-arrestin2 recruitment assays | GS-cAMP accumulation activity in words (human D1 [2]): inactive in both G protein and β-arrestin2 recruitment assays
27 | Fc1cc(-c2cccc3nccn23)cc(F)c1Oc1nccc2occc12 [Compound 43, 4-(2,6-Difluoro-4-(imidazo[1,2-a]pyridin-5-yl)phenoxy)furo[3,2-c]pyridine] | minimal β-arrestin2 recruitment | –
28 | FC(F)(F)c1cc(Oc2nccc3occ(C4CC4)c23)ccc1-c1cccc2nccn12 [Compound 44, 3-Cyclopropyl-4-(4-(imidazo[1,2-a]pyridin-5-yl)-3-(trifluoromethyl)phenoxy)furo[3,2-c]pyridine] | abolished β-arrestin2 recruitment | –
29 | FC(F)(F)c1cc(Oc2nccc3ccccc23)ccc1-c1cccc2nccn12 [Compound 45, 1-(4-(Imidazo[1,2-a]pyridin-5-yl)-3-(trifluoromethyl)phenoxy)-isoquinoline] | β-arrestin2 recruitment still eliminated | –
30 | FC(F)(F)c1cc(Oc2nccc3ccsc23)ccc1-c1cccc2nccn12 [Compound 46, 7-(4-(Imidazo[1,2-a]pyridin-5-yl)-3-(trifluoromethyl)phenoxy)-thieno[2,3-c]pyridine] | minimal β-arr2 recruitment; also recorded: greatly weakened | –
31 | FC(F)(F)c1cc(Oc2nccn3cccc23)ccc1-c1cccc2nccn12 [Compound 47, 5-(4-(Pyrrolo[1,2-a]pyrazin-1-yloxy)-2-(trifluoromethyl)phenyl)-imidazo[1,2-a]pyridine] | completely abrogated | –
32 | FC(F)(F)c1cc(Oc2ccccn2)ccc1-c1cccc2nccn12 [Compound 49, 5-(4-(Pyridin-2-yloxy)-2-(trifluoromethyl)phenyl)imidazo[1,2-a]-pyridine] | no activity in the β-arrestin2 pathway | –
